Test results taken from patent publication US9168268B1, “Saponins and chromans derivatives mixture compositions against leishmaniasis, Trypanosomiasis americana, malaria, Trypanosomiasis africana and Fasciola hepatica” (UNIVERSIDAD DE ANTIOQUIA, priority 2013, dated 2015).

Test system: L. amazonensis
Experiment: In vivo therapeutic response of hamsters experimentally infected with L. amazonensis (hamster model for cutaneous leishmaniasis)
Conditions: for cure rate: hamster model for cutaneous leishmaniasis, L. amazonensis, outcome at end of study (3 months after the end of treatment); for lesion size compared between treatment groups: hamsters infected with L. amazonensis, from the second month after the end of treatment to the end of the study; for activity against Leishmania parasites: leishmanicidal activity as shown in FIG. 4 and FIG. 5
Protocol: The formulation has been tested in vitro and in vivo for their leishmaninicidal activity.
A. TC1 (1.13 mg), B TC1 (4.01%), C: TC2 (1.35 mg), D: TC2 (3.0%), E: TC3 (1.72 mg), F: TC4 (1.25 mg), G: TC4 (4.03%), H: TC18 (3.0%), I: Mixture 1A, 2A, 3A (4.14%), J: Mixture 1A, 2A, 3A (7.77%), K: meglumina antimoniate (1209 mg), L: Vehicle (100 μl) and M: Vehicle (40 mg).
A. TC1 (1.13 mg), B TC1 (4.01%), C: TC2 (1.35 mg), D: TC2 (3.0%), E: TC3 (1.72 mg), F: TC4 (1.25 mg), G: TC4 (4.03%), H: TC18 (3.0%), I: Mixture 1A, 2A, 3A (4.14%), J: Mixture 1A, 2A, 3A (7.77%), K: meglumina antimoniate (1209 mg), L: Vehicle (100 μl) and M: Vehicle (40 mg). BoT: Beginning of Treatment; EoT: End of treatment. 1mAEoT: 1 month after the end of treatment, 2mAEoT: 2 months after the end of treatment, 3mAEoT: 3 months after the end of treatment. […] The efficacy may be increased using other dose or therapeutic schemes.

Compound | cure rate | lesion size compared between treatment groups | activity against Leishmania parasites
O=C(N/N=C1\CCSc2ccccc21)c1ccccc1 [TC1, Benzoic acid, 2-(2,3-dihydro-4H-1-benzothiopyran-4-ylidene)hydrazide] | 77% | lowest lesion size | exhibited activity
O=C(N/N=C1\CCSc2ccccc21)c1ccncc1 [TC2, 4-Pyridinecarboxylic acid, 2-(2,3-dihydro-4H-1-benzothiopyran-4-ylidene)hydrazid] | – | lowest lesion size | exhibited activity
O=C1CCS(=O)(=O)c2ccccc21 [TC18, Thiochroman-4-one, 1,1-dioxide] | 63% | – | exhibited activity
